Measurements published in patent US8796245B2 (TetraPhase Pharmaceuticals, Inc., priority 2008, dated 2014).
Values after ≈ are worked out from the molar mass of the structure shown.

Assays:
Format in all cases: cell-based
[1] = system: S. aureus ATCC 29213 (SA101, MSSA); test: Minimum inhibitory concentration assay, SA101; settings: Staphylococcus aureus; S. aureus ATCC 29213, MSSA control; read-out: MICs SA101
Experimental: (§1) Frozen bacterial strains were thawed and subcultured onto Mueller Hinton Broth (MHB) or other appropriate media (Streptococcus requires blood and Haemophilus requires hemin and NAD). Following incubation overnight, the strains were subcultured onto Mueller Hinton Agar and again incubated overnight. […] Isolated colonies were selected to prepare a starting inoculum equivalent to a 0.5 McFarland standard. The starting inoculum was diluted 1:125 using MHB for further use. Test compounds were prepared by dilution in sterile water to a final concentration of 5.128 mg/mL. Antibiotics (stored frozen, thawed and used within 3 hours of thawing) and compounds were further diluted to the desired working concentrations.
(§2) The assays were run as follows. Fifty μL of MHB was added to wells 2-12 of a 96-well plate. One hundred […] of appropriately diluted antibiotics was added to well 1. Fifty μL of antibiotics was removed from well 1 and added to well 2 and the contents of well 2 mixed by pipetting up and down five times. Fifty μL of the mixture in well 2 was removed and added to well 3 and mixed as above. Serial dilutions were continued in the same manner through well 12. Fifty μL was removed from well 12 so that all contained 50 μL. Fifty μL of the working inoculum was then added to all test wells. A growth control well was prepared by adding 50 μL of working inoculum and 50 μL of MHB to an empty well. The plates were then incubated at 37° C. overnight, removed from the incubator and each well was read on a plate reading mirror. The lowest concentration (MIC) of test compound that inhibited the growth of the bacteria was recorded.

[2] = system: S. aureus ATCC 13709 (SA100, MSSA, Smith strain); test: Minimum inhibitory concentration assay, SA100; settings: Staphylococcus aureus; S. aureus ATCC 13709, MSSA Smith strain; read-out: MICs SA100
Experimental: as §1, §2

[3] = system: S. aureus SA161 (tet resistant: tet(M) ribosomal protection); test: Minimum inhibitory concentration assay, SA161; settings: Staphylococcus aureus, read-out: MICs SA161
Experimental: as §1, §2

[4] = system: E. coli EC155 (tet resistant: tetA efflux); test: microbe, parasite or virus in culture; settings: Escherichia coli; E. coli tet resistant: tetA (efflux); read-out: MICs EC155
Experimental: as §1, §2

[5] = system: K. pneumoniae KP153 (tet resistant: tetA efflux); test: microbe, parasite or virus in culture; settings: Klebsiella pneumoniae, read-out: MICs KP153
Experimental: as §1, §2

[6] = system: S. aureus SA158 (tet resistant: tetK efflux); test: microbe, parasite or virus in culture; settings: Staphylococcus aureus, read-out: MICs SA158
Experimental: as §1, §2

[7] = system: E. faecalis ATCC 29212 (EF103); test: Minimum inhibitory concentration assay, EF103; settings: Enterococcus faecalis, ATCC29212, read-out: MICs EF103
Experimental: as §1, §2

[8] = system: E. faecalis EF159 (tet resistant: tetM); test: Minimum inhibitory concentration assay, EF159; settings: Enterococcus faecalis, read-out: MICs EF159
Experimental: as §1, §2

[9] = system: S. pneumoniae ATCC 49619 (SP106); test: Minimum inhibitory concentration assay, SP106; settings: Streptococcus pneumoniae, ATCC49619; S. pneumoniae ATCC 49619, wt; read-out: MICs SP106
Experimental: as §1, §2

[10] = system: S. pneumoniae SP160 (tet resistant: tet M); test: Minimum inhibitory concentration assay, SP160; settings: Streptococcus pneumoniae, read-out: MICs SP160
Experimental: as §1, §2

[11] = system: E. coli ATCC 25922 (EC107); test: Minimum inhibitory concentration assay, EC107; settings: Escherichia coli, ATCC25922; E. coli ATCC 25922, wt; read-out: MICs EC107
Experimental: as §1, §2

[12] = system: A. baumanii ATCC 19606 (AB110); test: Minimum inhibitory concentration assay, AB110; settings: Acinetobacter baumannii, ATCC19606; A. baumanii ATCC 19606, wt; read-out: MICs AB110
Experimental: as §1, §2

[13] = system: P. aeruginosa ATCC 27853 (PA111); test: Minimum inhibitory concentration assay, PA111; settings: Pseudomonas aeruginosa, ATCC27853; P. aeruginosa ATCC 27853, wt; read-out: MICs PA111
Experimental: as §1, §2

[14] = system: E. cloacae ATCC 13047 (EC108); test: Minimum inhibitory concentration assay, EC108; settings: Enterobacter cloacae, ATCC13047; E. cloacae ATCC 13047, wt; read-out: MICs EC108
Experimental: as §1, §2

[15] = system: K. pneumoniae ATCC 13883 (KP109); test: Minimum inhibitory concentration assay, KP109; settings: Klebsiella pneumoniae, ATCC13883; K. pneumoniae ATCC 13883, wt; read-out: MICs KP109
Experimental: as §1, §2

SMILES | MIC [1] [µg/mL] | MIC [2] [µg/mL] | MIC [3] [µg/mL] | MIC [4] [µg/mL] | MIC [5] [µg/mL] | MIC [6] [µg/mL] | MIC [7] [µg/mL] | MIC [8] [µg/mL] | MIC [9] [µg/mL] | MIC [10] [µg/mL] | MIC [11] [µg/mL] | MIC [12] [µg/mL] | MIC [13] [µg/mL] | MIC [14] [µg/mL] | MIC [15] [µg/mL]
CN(C)[C@@H]1C(O)=C(C(N)=O)C(=O)[C@@]2(O)C(O)=C3C(=O)c4c(O)c(NC(=O)CNC(C)(C)C)cc(F)c4C[C@H]3C[C@@H]12 [Compound 11] | 0.125 (≈ 0.223 µM) | 0.25 (≈ 0.446 µM) | 0.25 (≈ 0.446 µM) | 2 (≈ 3.57 µM) | 2 (≈ 3.57 µM) | 0.0625 (≈ 0.111 µM) | 0.0625 (≈ 0.111 µM) | 0.125 (≈ 0.223 µM) | ≤ 0.0156 | ≤ 0.0156 | 0.25 (≈ 0.446 µM) | 0.5 (≈ 0.892 µM) | 16 (≈ 28.5 µM) | 1 (≈ 1.78 µM) | 1 (≈ 1.78 µM)
CCCNCC(=O)Nc1cc(F)c2c(c1O)C(=O)C1=C(O)[C@]3(O)C(=O)C(C(N)=O)=C(O)[C@@H](N(C)C)[C@@H]3C[C@@H]1C2 [Compound 12] | ≤ 0.0156 | ≤ 0.0156 | 0.125 (≈ 0.229 µM) | 8 (≈ 14.6 µM) | 4 (≈ 7.32 µM) | 0.5 (≈ 0.915 µM) | ≤ 0.0156 | 0.0625 (≈ 0.114 µM) | ≤ 0.0156 | ≤ 0.0156 | 0.25 (≈ 0.457 µM) | 1 (≈ 1.83 µM) | 16 (≈ 29.3 µM) | 1 (≈ 1.83 µM) | 1 (≈ 1.83 µM)
CCCCNCC(=O)Nc1cc(F)c2c(c1O)C(=O)C1=C(O)[C@]3(O)C(=O)C(C(N)=O)=C(O)[C@@H](N(C)C)[C@@H]3C[C@@H]1C2 [Compound 13] | ≤ 0.0156 | ≤ 0.0156 | 0.0625 (≈ 0.111 µM) | 4 (≈ 7.14 µM) | 2 (≈ 3.57 µM) | 0.25 (≈ 0.446 µM) | ≤ 0.0156 | 0.0625 (≈ 0.111 µM) | ≤ 0.0156 | ≤ 0.0156 | 0.125 (≈ 0.223 µM) | 0.25 (≈ 0.446 µM) | 16 (≈ 28.5 µM) | 1 (≈ 1.78 µM) | 0.5 (≈ 0.892 µM)
CCCCCCNCC(=O)Nc1cc(F)c2c(c1O)C(=O)C1=C(O)[C@]3(O)C(=O)C(C(N)=O)=C(O)[C@@H](N(C)C)[C@@H]3C[C@@H]1C2 [Compound 14] | 0.5 (≈ 0.849 µM) | 0.25 (≈ 0.425 µM) | 0.5 (≈ 0.849 µM) | 4 (≈ 6.8 µM) | 2 (≈ 3.4 µM) | 0.25 (≈ 0.425 µM) | 0.125 (≈ 0.212 µM) | 0.25 (≈ 0.425 µM) | 0.03 (≈ 0.051 µM) | 0.125 (≈ 0.212 µM) | 0.5 (≈ 0.849 µM) | 0.25 (≈ 0.425 µM) | 16 (≈ 27.2 µM) | 2 (≈ 3.4 µM) | 1 (≈ 1.7 µM)
CN(C)[C@@H]1C(O)=C(C(N)=O)C(=O)[C@@]2(O)C(O)=C3C(=O)c4c(O)c(NC(=O)CNCC(C)(C)C)cc(F)c4C[C@H]3C[C@@H]12 [Compound 15] | 0.5 (≈ 0.87 µM) | 0.5 (≈ 0.87 µM) | 0.5 (≈ 0.87 µM) | 4 (≈ 6.96 µM) | 4 (≈ 6.96 µM) | 0.25 (≈ 0.435 µM) | 0.5 (≈ 0.87 µM) | 0.5 (≈ 0.87 µM) | 0.016 (≈ 0.0278 µM) | 0.016 (≈ 0.0278 µM) | 1 (≈ 1.74 µM) | 0.125 (≈ 0.218 µM) | 16 (≈ 27.8 µM) | 4 (≈ 6.96 µM) | 2 (≈ 3.48 µM)
CC(C)NCC(=O)Nc1cc(F)c2c(c1O)C(=O)C1=C(O)[C@]3(O)C(=O)C(C(N)=O)=C(O)[C@@H](N(C)C)[C@@H]3C[C@@H]1C2 [Compound 16] | 0.125 (≈ 0.229 µM) | 0.25 (≈ 0.457 µM) | 0.25 (≈ 0.457 µM) | 8 (≈ 14.6 µM) | 4 (≈ 7.32 µM) | 0.5 (≈ 0.915 µM) | 0.0625 (≈ 0.114 µM) | 0.0625 (≈ 0.114 µM) | ≤ 0.0156 | ≤ 0.0156 | 0.5 (≈ 0.915 µM) | 1 (≈ 1.83 µM) | 16 (≈ 29.3 µM) | 1 (≈ 1.83 µM) | 1 (≈ 1.83 µM)
CN(C)[C@@H]1C(O)=C(C(N)=O)C(=O)[C@@]2(O)C(O)=C3C(=O)c4c(O)c(NC(=O)CNC5CC5)cc(F)c4C[C@H]3C[C@@H]12 [Compound 17] | 0.25 (≈ 0.459 µM) | 0.5 (≈ 0.918 µM) | 1 (≈ 1.84 µM) | 32 (≈ 58.8 µM) | 32 (≈ 58.8 µM) | 2 (≈ 3.67 µM) | 0.25 (≈ 0.459 µM) | 1 (≈ 1.84 µM) | 0.0625 (≈ 0.115 µM) | 0.0625 (≈ 0.115 µM) | 2 (≈ 3.67 µM) | 0.5 (≈ 0.918 µM) | 32 (≈ 58.8 µM) | 8 (≈ 14.7 µM) | 4 (≈ 7.35 µM)
